How the values were obtained:
CaSki cells = assay: Example 18: proliferation of CaSki cells; assay type: cell-based; conditions: 10^−6 M AGN 193109, no added retinoid agonist
Procedure: EGF was added to the retinoid treated cultures to give a final concentration of 20 ng/ml. […] The media was replaced with fresh media and each of the two retinoid compounds, as appropriate, every day. Cell numbers were determined using a COULTER counter as described above.

[1] = target: T1, RAR-α and RXR-α with DR-5 RARE probe (Homo sapiens, UniProt P10276); assay: Example 9: gel shift analysis; assay type: biochemical; conditions: prebound with AGN 193109 (10^−6 M)
T1 construct: made in house; host or cells: reticulocyte lysate in vitro transcription-translation
Description: In vitro translated RAR-α was produced essentially as described under Example 8, except that ^35S-labeled methoinine was omitted. In vitro translated RXR-α was similarly produced using a pBluescript(II)(SK)-based vector containing the RXR-α cDNA described by Mangelsdorf, et al. in Nature 345:224-229 (1990) as the template for generating in vitro transcripts. […] The binding mixture was electrophoresed on a non-denaturing polyacrylamide gel and autoradiographed according to standard laboratory procedures. A single retarded species appearing on the autoradiograph that was common to all the lanes on the gel represented an undefined probe-binding factor present in the reticulocyte lysate. Only the RAR/RXR combination gave rise to a retinoid receptor-specific retarded species. Neither RAR alone nor RXR alone bound the probe to produce this shifted species.

[2] = system: TPA-induced AP-1 activity; assay: Example 15: anti-AP-1 activity, Str-AP1-CAT in HeLa cells; assay type: cell-based
Procedure: HeLa cells were transfected with 1 μg of Str-AP1-CAT using LIPOFECTAMINE according to the method described by Nagpal et al. in J. Biol. Chem. 270:923 (1995). Transfected cells were treated with AGN 193109 alone (10^−9 to 10^−7 M), 1,25-dihydroxyvitamin D3 alone (10^−12 to 10^−7 M) or 1,25-dihydroxyvitamin D3 (10^−12 to 10^−7 M) in the presence of 10^−8 M AGN 193109.

RXRs = assay: Affinity for the RXRs; assay type: binding
RARγ [3] = target: T2, RARγ (Homo sapiens, UniProt P13631); assay: Example 16: transactivation, MTV-TREp-Luc in HeLa cells; assay type: cell-based
T2 sequence (P13631 1-454): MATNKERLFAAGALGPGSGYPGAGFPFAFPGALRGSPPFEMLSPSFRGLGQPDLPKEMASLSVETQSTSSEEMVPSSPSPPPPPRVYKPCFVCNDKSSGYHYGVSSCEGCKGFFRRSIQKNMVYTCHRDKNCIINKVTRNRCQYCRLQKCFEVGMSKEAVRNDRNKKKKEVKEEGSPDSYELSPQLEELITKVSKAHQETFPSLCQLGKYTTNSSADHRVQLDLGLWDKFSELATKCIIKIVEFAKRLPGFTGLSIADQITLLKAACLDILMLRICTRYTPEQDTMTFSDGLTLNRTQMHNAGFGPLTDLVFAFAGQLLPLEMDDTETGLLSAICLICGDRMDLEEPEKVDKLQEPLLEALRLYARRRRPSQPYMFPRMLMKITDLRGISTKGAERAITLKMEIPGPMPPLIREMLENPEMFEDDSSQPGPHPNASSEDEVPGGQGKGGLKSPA

CaSki cell tumors = assay: Example 22: CaSki cell tumor growth in nude mice; assay type: in vivo; conditions: 20 μMol/kg AGN 193109 in corn oil daily, intragastric
Procedure: 1×10^6 CaSki cells are injected into each of a panel of nude mice. Tumor formation is assessed using techniques that will be familiar to one having ordinary skill in the art. After injection, mice are randomly divided into control and test groups. The control group receives a placebo. The test group is administered with AGN 193109. Animals administered with the placebo receive intragastric intubation of corn oil. The test animals receive 20 μMol/kg AGN 193109 in corn oil daily for the period of the treatment. Tumor volume is measured in […] using graduated calipers. Tumor volume is plotted as function of time.

RARγ [4] = target: T2, RARγ; assay: Example 7: inhibition of RAR transactivation by ATRA, CV-1 cells; assay type: cell-based; conditions: equal doses of AGN 193109 and ATRA (10 nM ATRA)
RARβ [5] = target: T3, RARβ (Homo sapiens, UniProt P10826); assay: as above; assay type: cell-based; set-up: expressed in transfected cells; host or cells: green monkey CV-1 cells; conditions: equal doses of AGN 193109 and ATRA (10 nM ATRA)
T3 sequence (P10826 1-448 isoform P10826-2): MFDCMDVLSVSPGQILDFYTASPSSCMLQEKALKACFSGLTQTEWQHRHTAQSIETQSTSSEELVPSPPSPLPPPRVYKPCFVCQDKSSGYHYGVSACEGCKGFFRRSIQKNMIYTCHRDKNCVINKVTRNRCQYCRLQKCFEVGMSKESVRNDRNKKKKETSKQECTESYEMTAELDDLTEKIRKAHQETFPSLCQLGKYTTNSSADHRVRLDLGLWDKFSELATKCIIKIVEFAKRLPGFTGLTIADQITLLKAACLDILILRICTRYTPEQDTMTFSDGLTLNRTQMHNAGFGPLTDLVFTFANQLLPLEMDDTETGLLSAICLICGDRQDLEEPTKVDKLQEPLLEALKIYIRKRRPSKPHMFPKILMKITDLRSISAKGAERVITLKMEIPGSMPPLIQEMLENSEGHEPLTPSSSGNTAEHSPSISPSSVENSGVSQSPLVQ
Procedure: Eukaryotic expression vectors pRShRAR-α (Giguere et al. Nature 330:624 (1987)), pRShRAR-β (Benbrook et al. Nature 333:669 (1988)) and pRShRAR-γ (Ishikawa et al. Mol. Endocrinol. 4:837 (1990)) were cotransfected with the Δ-MTV-Luc reporter plasmid described by Hollenberg et al. (Cell 55:899.(1988)). […] Calcium phosphate transfections were carried out exactly as described in Example 6. […] Cell lysates and luciferase activity measurements were also performed as in Example 6.

[6] = system: TPA-induced Str-AP1-CAT expression; assay: Example 13: anti-AP-1 activity, Str-AP1-CAT and pRS-hRARα in HeLa cells; assay type: cell-based; conditions: AGN 193109 alone, 10^−10 to 10^−8 M
[7] = system: RAR-γ-VP-16 with ER-RXR-α
RARβ [8] = target: T3, RARβ; assay: [3H]-ATRA displacement assay, baculovirus expressed receptor; assay type: binding; set-up: made in house; host or cells: baculovirus expression system; conditions: Table 11

T1 sequence (P10276 whole entry): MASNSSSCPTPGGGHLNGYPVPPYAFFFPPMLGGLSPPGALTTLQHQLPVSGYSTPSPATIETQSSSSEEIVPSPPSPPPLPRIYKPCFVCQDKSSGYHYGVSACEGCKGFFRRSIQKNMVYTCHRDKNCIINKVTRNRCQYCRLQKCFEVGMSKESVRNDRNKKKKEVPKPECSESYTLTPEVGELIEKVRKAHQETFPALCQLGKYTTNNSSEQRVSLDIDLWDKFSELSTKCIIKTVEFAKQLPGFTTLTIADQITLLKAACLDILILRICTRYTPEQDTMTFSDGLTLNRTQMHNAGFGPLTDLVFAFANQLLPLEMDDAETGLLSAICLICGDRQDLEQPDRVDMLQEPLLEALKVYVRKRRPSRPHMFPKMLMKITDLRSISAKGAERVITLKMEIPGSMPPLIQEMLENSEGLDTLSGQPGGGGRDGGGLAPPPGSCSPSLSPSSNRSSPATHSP
T1 sequence (P19793 whole entry partner): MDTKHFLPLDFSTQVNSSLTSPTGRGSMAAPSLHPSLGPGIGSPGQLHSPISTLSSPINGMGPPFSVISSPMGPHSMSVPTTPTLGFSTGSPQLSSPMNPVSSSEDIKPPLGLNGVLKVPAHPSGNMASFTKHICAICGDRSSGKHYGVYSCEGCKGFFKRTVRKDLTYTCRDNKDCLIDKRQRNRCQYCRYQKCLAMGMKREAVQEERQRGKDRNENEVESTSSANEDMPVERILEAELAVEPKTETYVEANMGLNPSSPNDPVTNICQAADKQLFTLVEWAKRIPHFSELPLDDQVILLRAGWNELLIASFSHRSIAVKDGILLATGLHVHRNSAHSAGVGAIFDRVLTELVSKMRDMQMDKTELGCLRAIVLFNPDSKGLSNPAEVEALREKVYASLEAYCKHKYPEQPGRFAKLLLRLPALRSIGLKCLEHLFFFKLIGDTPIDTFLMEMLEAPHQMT

SMILES: Cc1ccc(C2=CCC(C)(C)c3ccc(C#Cc4ccc(C(=O)O)cc4)cc32)cc1 [Compound 60, 4-[(5,6-dihydro-5,5-dimethyl-8-(4-methylphenyl)-2-naphthalenyl)ethynyl]benzoic acid]
- proliferation (CaSki cells): inhibited proliferation of the CaSki cervical epithelial cell line
- RAR/RXR retarded species on DR-5 RARE probe [1]: did not diminish this interaction
- anti-AP-1 activity ([2]; AGN 193109 alone, 10^−9 to 10^−7 M): no detectable anti-AP-1 activity
- anti-AP-1 activity of 1,25-dihydroxyvitamin D3 ([2]; in the presence of 10^−8 M AGN 193109): anti-AP-1 activity was detectable at 10^−10 and 10^−9 M 1,25-dihydroxyvitamin D3
- affinity for the RXRs (RXRs): no measurable affinity
- inhibition of the response to 10^−9 M AGN 191183 (RARγ [3]; 10^−9 M AGN 193109, HeLa cells, preliminary experiments): relatively ineffective
- luciferase activity (RARγ [3]; AGN 193109 10^−11 and 10^−10 M with AGN 191183 10^−10 or 10^−9 M): stimulation of luciferase activity over that of AGN 191183 alone
- tumor growth rate (CaSki cell tumors): tumors which are significantly reduced in their growth rate
- inhibition of luciferase activity relative to ATRA alone (RARγ [4]): greater than 50%
- inhibition of luciferase activity relative to ATRA alone (RARβ [5]): greater than 50%
- inhibition of AP-1 mediated reporter activity [6]: did not substantially inhibit
- luciferase activity readings ([7]; AGN 193109 at 10^−8−10^−6 M (maximal inhibition)): approximately 16,000 rlu
- concentration of maximal inhibition of luciferase activity ([7]; cells cotransfected with ER-RXR-α and RAR-γ-VP-16): approximately 10^−8 M
- luciferase activity of triple transfectants ([7]; no other retinoid added, 18 hours): dose dependent decrease in luciferase activity
- Kd (RARβ [8]): 2 nM
